We go through ten molecules from US12606568B2, “SMARCA degraders and uses thereof” (Kymera Therapeutics, Inc., priority 2020, dated 2026).

Holding throughout (assay type): cell-based
The target of experiment [1] is T1, SMARCA4 (Homo sapiens, UniProt P51532).
T1 construct: SMARCA2 and SMARCA4 protein degradation in MV4-11 cells; endogenous in cells; host or cells: MV4-11
The experiment in a line: SMARCA4 Western blot MV4-11 degradation. To be noted: for SMARCA4 MSD MV411 degradation 24 h: average Dmax % / DC50: MV4-11 cells; for DC50 / Dmax: 24 h; for DC50: read-out: SMARCA4 MSD MV411 degradation 24 h: Mean external-Abs DC50; for Dmax: MV4-11, MV4-11 cells, read-out: SMARCA4 MSD MV411 degradation 24 h: average Dmax %.

In experiment [2] the target is T2, SMARCA2 (Homo sapiens, UniProt P51531). The experiment can be described thus: MSD SMARCA2 degradation in A549 cell line. The arrangement: endogenous in cells. Particulars: for SMARCA2 MSD A549 degradation 24 h: Average Dmax % / DC50: A549 cells; for DC50 / Dmax: 24 h; for DC50: read-out: SMARCA2 MSD A549 degradation 24 h: Average external-Abs DC50; for Dmax: A549, A549 cells. In a few lines: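 A549 cells treated 24 h with compound, 3-fold series 1000 nM down to 0.152 nM plus DMSO. RIPA lysates captured on MSD plates, probed with rabbit anti-SMARCA2/BRM (1 µg/ml) then SULFO-TAG anti-rabbit, electrochemiluminescence read. DC50 and 24 h Dmax reported as letter bins.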

The target of experiment [3] is T2, SMARCA2. The experiment in a line: SMARCA2 Western blot MV4-11 degradation. The arrangement: SMARCA2 and SMARCA4 protein degradation in MV4-11 cells; endogenous in cells; host or cells: MV4-11. To be noted: for SMARCA2 MSD MV411 degradation 24 h: average Dmax % / DC50: MV4-11 cells; for DC50 / Dmax: 24 h; for DC50: read-out: SMARCA2 MSD MV411 degradation 24 h: Mean external-Abs DC50; for Dmax: MV4-11, MV4-11 cells, read-out: SMARCA2 MSD MV411 degradation 24 h: average Dmax %.

T2 sequence (P51531 whole entry): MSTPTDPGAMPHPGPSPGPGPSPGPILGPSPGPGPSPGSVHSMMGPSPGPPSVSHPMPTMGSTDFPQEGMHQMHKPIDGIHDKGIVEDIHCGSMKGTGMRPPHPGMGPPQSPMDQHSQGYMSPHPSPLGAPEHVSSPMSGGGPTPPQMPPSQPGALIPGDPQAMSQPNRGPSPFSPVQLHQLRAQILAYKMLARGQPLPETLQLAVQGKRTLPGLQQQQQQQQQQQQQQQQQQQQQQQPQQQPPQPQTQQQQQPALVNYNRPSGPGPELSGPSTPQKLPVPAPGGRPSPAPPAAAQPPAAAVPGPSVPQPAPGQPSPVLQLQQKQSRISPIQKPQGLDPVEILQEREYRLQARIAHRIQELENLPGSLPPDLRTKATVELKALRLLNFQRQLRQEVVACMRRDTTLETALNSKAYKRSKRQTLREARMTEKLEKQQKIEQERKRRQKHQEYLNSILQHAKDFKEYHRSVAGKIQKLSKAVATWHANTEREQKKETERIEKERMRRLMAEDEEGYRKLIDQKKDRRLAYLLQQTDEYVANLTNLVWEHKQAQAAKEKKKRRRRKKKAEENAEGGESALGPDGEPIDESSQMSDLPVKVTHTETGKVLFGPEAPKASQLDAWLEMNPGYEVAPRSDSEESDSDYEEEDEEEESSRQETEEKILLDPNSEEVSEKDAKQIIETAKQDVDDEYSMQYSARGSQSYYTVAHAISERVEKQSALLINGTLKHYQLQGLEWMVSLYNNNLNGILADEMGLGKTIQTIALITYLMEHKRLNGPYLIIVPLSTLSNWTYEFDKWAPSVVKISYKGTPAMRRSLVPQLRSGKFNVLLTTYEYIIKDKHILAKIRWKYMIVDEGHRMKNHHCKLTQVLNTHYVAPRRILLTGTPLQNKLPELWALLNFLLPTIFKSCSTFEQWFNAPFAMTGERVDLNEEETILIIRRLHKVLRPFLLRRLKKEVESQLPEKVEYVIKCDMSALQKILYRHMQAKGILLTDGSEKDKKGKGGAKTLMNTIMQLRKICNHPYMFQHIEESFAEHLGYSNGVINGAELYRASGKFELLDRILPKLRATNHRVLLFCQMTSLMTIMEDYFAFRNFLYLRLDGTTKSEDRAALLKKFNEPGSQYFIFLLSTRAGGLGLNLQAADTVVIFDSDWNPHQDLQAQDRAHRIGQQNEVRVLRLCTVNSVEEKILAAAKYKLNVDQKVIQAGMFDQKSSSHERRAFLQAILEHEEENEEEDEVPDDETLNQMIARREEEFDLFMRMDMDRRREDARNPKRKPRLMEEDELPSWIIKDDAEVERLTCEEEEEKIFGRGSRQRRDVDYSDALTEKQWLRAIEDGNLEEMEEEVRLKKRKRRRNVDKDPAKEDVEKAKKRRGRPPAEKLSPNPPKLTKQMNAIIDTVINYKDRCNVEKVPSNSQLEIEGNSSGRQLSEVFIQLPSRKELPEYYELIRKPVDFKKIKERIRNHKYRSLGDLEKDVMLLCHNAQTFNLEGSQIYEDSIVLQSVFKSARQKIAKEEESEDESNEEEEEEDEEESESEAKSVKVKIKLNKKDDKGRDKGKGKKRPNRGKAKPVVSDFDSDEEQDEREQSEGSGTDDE
T1 sequence (P51532 whole entry): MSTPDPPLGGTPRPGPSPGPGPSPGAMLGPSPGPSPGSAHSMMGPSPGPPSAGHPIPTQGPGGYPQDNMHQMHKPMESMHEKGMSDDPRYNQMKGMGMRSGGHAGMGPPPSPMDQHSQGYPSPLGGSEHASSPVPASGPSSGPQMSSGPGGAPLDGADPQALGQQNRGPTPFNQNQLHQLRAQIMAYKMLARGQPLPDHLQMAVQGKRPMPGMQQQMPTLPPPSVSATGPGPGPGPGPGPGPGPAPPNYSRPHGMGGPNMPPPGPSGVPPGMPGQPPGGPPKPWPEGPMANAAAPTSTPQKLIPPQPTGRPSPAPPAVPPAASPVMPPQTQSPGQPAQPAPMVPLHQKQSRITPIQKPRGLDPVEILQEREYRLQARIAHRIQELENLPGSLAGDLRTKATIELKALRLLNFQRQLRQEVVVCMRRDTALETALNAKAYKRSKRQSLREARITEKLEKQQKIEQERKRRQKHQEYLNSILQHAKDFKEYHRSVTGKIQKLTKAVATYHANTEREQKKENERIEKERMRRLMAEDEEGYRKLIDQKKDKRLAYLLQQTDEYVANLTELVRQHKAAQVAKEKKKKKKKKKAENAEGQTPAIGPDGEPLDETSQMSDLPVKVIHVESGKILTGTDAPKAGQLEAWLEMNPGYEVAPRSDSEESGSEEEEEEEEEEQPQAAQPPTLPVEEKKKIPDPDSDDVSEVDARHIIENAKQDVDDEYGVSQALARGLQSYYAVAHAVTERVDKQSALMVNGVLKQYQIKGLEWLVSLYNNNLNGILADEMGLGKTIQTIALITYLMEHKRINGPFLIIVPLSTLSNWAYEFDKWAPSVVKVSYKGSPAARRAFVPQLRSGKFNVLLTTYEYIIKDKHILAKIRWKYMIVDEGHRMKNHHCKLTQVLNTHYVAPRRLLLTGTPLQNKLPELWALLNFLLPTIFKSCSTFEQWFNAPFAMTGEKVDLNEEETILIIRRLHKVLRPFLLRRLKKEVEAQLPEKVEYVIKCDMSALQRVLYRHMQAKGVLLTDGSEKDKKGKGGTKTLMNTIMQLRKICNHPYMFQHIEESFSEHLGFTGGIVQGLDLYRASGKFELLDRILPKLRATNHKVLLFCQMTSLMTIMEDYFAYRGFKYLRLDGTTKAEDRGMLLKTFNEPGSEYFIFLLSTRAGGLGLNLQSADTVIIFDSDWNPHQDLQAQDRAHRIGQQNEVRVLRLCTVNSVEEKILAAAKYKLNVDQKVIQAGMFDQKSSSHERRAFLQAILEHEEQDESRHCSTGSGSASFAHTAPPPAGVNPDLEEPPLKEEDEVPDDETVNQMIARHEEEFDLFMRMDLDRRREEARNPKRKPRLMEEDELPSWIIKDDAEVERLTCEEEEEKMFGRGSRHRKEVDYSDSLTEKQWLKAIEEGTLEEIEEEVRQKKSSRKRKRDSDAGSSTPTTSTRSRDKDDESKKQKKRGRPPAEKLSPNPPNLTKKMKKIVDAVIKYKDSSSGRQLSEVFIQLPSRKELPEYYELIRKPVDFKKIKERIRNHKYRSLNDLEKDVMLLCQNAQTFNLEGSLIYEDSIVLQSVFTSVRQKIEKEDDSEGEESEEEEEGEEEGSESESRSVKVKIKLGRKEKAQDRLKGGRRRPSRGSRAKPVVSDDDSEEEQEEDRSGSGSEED

As to `Cc1ncsc1-c1ccc(CNC(=O)[C@@H]2C[C@@H](O)CN2C(=O)[C@@H](NC(=O)[C@H]2CC3(CC[C@H](N4CCC(c5cnc(N6C7CCC6CN(c6cc(-c8ccccc8O)nnc6N)C7)nc5)CC4)CC3)C2)C(C)(C)C)cc1` (stereo partly drawn) [I-14, (2S,4R)-1-((2S)-2-(7-(4-(2-(3-(3-amino-6-(2-hydroxyphenyl)pyridazin-4-yl)-3,8-diazabicyclo[3.2.1]octan-8-yl)pyrimidin-5-yl)piperidin-1-yl)spiro[3.5]nonane-2-carboxamido)-3,3-dimethylbutanoyl)-4-hydroxy-N-(4-(4-methylthiazol-5-yl)benzyl)pyrrolidine-2-carboxamide], in experiment [1], the “SMARCA4 MSD MV411 degradation 24 h: average Dmax %” value was “B (B (>70-90% degradation))” and the DC50 is over 1 µM. Also, in experiment [2], the “SMARCA2 MSD A549 degradation 24 h: Average Dmax %” value was “B (B (>70-90% o degradation))” and the DC50 was under 0.1 µM. Also, in experiment [3], the “SMARCA2 MSD MV411 degradation 24 h: average Dmax %” value is listed as “B (B (>70-90% degradation))” and the DC50 was under 0.1 µM.
On to `Cc1ncsc1-c1ccc([C@H](C)NC(=O)[C@@H]2C[C@@H](O)CN2C(=O)[C@@H](NC(=O)[C@H]2CCC3(CC2)C[C@H](N2CCC(c4cnc(N5C6CCC5CN(c5cc(-c7ccccc7O)nnc5N)C6)nc4)CC2)C3)C(C)(C)C)cc1` (stereo partly drawn) [I-16, (2S,4R)-1-((2S)-2-(2-(4-(2-(3-(3-amino-6-(2-hydroxyphenyl)pyridazin-4-yl)-3,8-diazabicyclo[3.2.1]octan-8-yl)pyrimidin-5-yl)piperidin-1-yl)spiro[3.5]nonane-7-carboxamido)-3,3-dimethylbutanoyl)-4-hydroxy-N—((S)-1-(4-(4-methylthiazol-5-yl)phenyl)ethyl)pyrrolidine-2-carboxamide], for which, in experiment [1], the “SMARCA4 MSD MV411 degradation 24 h: average Dmax %” value was “B (B (>70-90% degradation))” and the DC50 is under 0.1 µM. In addition, in experiment [2], the “SMARCA2 MSD A549 degradation 24 h: Average Dmax %” value was “A (A (>90% o degradation))” and the 50% degradation concentration (DC50) is 0.1 to 0.5 µM. In experiment [3], the “SMARCA2 MSD MV411 degradation 24 h: average Dmax %” value was “A (A (>90% degradation))” and the DC50 is under 0.1 µM.
Turning to `Cc1ncsc1-c1ccc(CNC(=O)[C@@H]2C[C@@H](O)CN2C(=O)C(c2cc(OCCCOCCCN3CCC(Cn4cc(-c5cc(-c6ccccc6O)nnc5N)cn4)CC3)no2)C(C)C)cc1` (stereo partly drawn) [I-21, (2S,4R)-1-(2-(3-(3-(3-(4-((4-(3-amino-6-(2-hydroxyphenyl)pyridazin-4-yl)-1H-pyrazol-1-yl)methyl)piperidin-1-yl)propoxy)propoxy)isoxazol-5-yl)-3-methylbutanoyl)-4-hydroxy-N-(4-(4-methylthiazol-5-yl)benzyl)pyrrolidine-2-carboxamide], the Dmax was 70 to 90% in experiment [1], over 90% in experiment [2] and over 90% in experiment [3]. The DC50 was 0.501 to 1 µM in experiment [1], over 1 µM in experiment [2] and under 0.1 µM in experiment [3].
With `Cc1ncsc1-c1ccc(CNC(=O)[C@@H]2C[C@@H](O)CN2C(=O)C(c2cc(OCCN3CCC(O[C@H]4C[C@H](Oc5cc(N6C7CCC6CN(c6cc(-c8ccccc8O)nnc6N)C7)ccn5)C4)CC3)no2)C(C)C)cc1` (stereo partly drawn) [I-22, (2S,4R)-1-(2-(3-(2-(4-((1r,3r)-3-((4-(3-(3-amino-6-(2-hydroxyphenyl)pyridazin-4-yl)-3,8-diazabicyclo[3.2.1]octan-8-yl)pyridin-2-yl)oxy)cyclobutoxy)piperidin-1-yl)ethoxy)isoxazol-5-yl)-3-methylbutanoyl)-4-hydroxy-N-(4-(4-methylthiazol-5-yl)benzyl)pyrrolidine-2-carboxamide], the Dmax in experiment [1] is over 90%; in experiment [2], over 90%; in experiment [3] it was 70 to 90%. Moreover, the DC50 in experiment [1] was over 1 µM; in experiment [2] it was 0.501 to 1 µM; in experiment [3], under 0.1 µM.
As for `Cc1ncsc1-c1ccc(CNC(=O)[C@@H]2C[C@@H](O)CN2C(=O)[C@@H](NC(=O)[C@H]2CC3(C2)C[C@H](N2CCC(c4ccc(N5C6CCC5CN(c5cc(-c7ccccc7O)nnc5N)C6)cc4)CC2)C3)C(C)(C)C)nc1` (stereo partly drawn) [I-23, (2S,4R)-1-((2S)-2-(6-(4-(4-(3-(3-amino-6-(2-hydroxyphenyl)pyridazin-4-yl)-3,8-diazabicyclo[3.2.1]octan-8-yl)phenyl)piperidin-1-yl)spiro[3.3]heptane-2-carboxamido)-3,3-dimethylbutanoyl)-4-hydroxy-N-((5-(4-methylthiazol-5-yl)pyridin-2-yl)methyl)pyrrolidine-2-carboxamide], the Dmax in experiment [1], in experiment [2] and in experiment [3] was under 50% each time. Also, the DC50 was over 1 µM in experiment [1], over 1 µM in experiment [2] and 0.1 to 0.5 µM in experiment [3].
Take `Cc1ncsc1-c1ccc(CNC(=O)[C@@H]2C[C@@H](O)CN2C(=O)[C@@H](NC(=O)[C@H]2CC3(C2)C[C@H](N2CCC(c4ccc(N5C6CCC5CN(c5cc(-c7ccccc7O)nnc5N)C6)cc4)CC2)C3)C(C)(C)C)nc1` (stereo partly drawn) [I-24, (2S,4R)-1-((2S)-2-(6-(4-(4-(3-(3-amino-6-(2-hydroxyphenyl)pyridazin-4-yl)-3,8-diazabicyclo[3.2.1]octan-8-yl)phenyl)piperidin-1-yl)spiro[3.3]heptane-2-carboxamido)-3,3-dimethylbutanoyl)-4-hydroxy-N-((5-(4-methylthiazol-5-yl)pyridin-2-yl)methyl)pyrrolidine-2-carboxamide]: the DC50 in experiment [1] is over 1 µM; in experiment [2], over 1 µM; in experiment [3], 0.1 to 0.5 µM.
As to `Cc1ncsc1-c1cnc(CNC(=O)[C@@H]2C[C@@H](O)CN2C(=O)[C@@H](NC(=O)[C@H]2CC3(C2)C[C@H](N2CCC(c4ccc(N5C6CCC5CN(c5cc(-c7ccccc7O)nnc5N)C6)cc4)CC2)C3)C(C)(C)C)nc1` (stereo partly drawn) [I-25, (2S,4R)-1-((2S)-2-(6-(4-(4-(3-(3-amino-6-(2-hydroxyphenyl)pyridazin-4-yl)-3,8-diazabicyclo [3.2.1]octan-8-yl)phenyl)piperidin-1-yl)spiro[3.3]heptane-2-carboxamido)-3,3-dimethylbutanoyl)-4-hydroxy-N-((5-(4-methylthiazol-5-yl)pyrimidin-2-yl)methyl)pyrrolidine-2-carboxamide], the Dmax in experiment [1], in experiment [2] and in experiment [3] was under 50% in each case. For the same molecule, the 50% degradation concentration (DC50) in experiment [1], in experiment [2] and in experiment [3] was over 1 µM in each case.
As for `Cc1ncsc1-c1ccc(CNC(=O)[C@@H]2C[C@@H](O)CN2C(=O)[C@@H](NC(=O)[C@H]2CC3(C2)C[C@H](N2CCC(c4ccc(N5C6CCC5CN(c5cc(-c7ccccc7O)nnc5N)C6)cc4)CC2)C3)C(C)(C)C)cn1` (stereo partly drawn) [I-27, (2S,4R)-1-((2S)-2-(6-(4-(4-(3-(3-amino-6-(2-hydroxyphenyl)pyridazin-4-yl)-3,8-diazabicyclo[3.2.1]octan-8-yl)phenyl)piperidin-1-yl)spiro[3.3]heptane-2-carboxamido)-3,3-dimethylbutanoyl)-4-hydroxy-N-((6-(4-methylthiazol-5-yl)pyridin-3-yl)methyl)pyrrolidine-2-carboxamide], the Dmax in experiment [1], in experiment [2] and in experiment [3] was under 50% in each case. Moreover, the 50% degradation concentration (DC50) in experiment [1] is over 1 µM; in experiment [2], over 1 µM; in experiment [3], 0.1 to 0.5 µM.
As for `Cc1ncsc1-c1ccc(CNC(=O)[C@@H]2C[C@@H](O)CN2C(=O)[C@@H](NC(=O)[C@H]2CC3(C2)C[C@H](N2CCC(c4ccc(N5C6CCC5CN(c5cc(-c7ccccc7O)nnc5N)C6)cc4)CC2)C3)C(C)(C)C)cn1` (stereo partly drawn) [I-28, (2S,4R)-1-((2S)-2-(6-(4-(4-(3-(3-amino-6-(2-hydroxyphenyl)pyridazin-4-yl)-3,8-diazabicyclo[3.2.1]octan-8-yl)phenyl)piperidin-1-yl)spiro[3.3]heptane-2-carboxamido)-3,3-dimethylbutanoyl)-4-hydroxy-N-((6-(4-methylthiazol-5-yl)pyridin-3-yl)methyl)pyrrolidine-2-carboxamide], the DC50 is over 1 µM in experiment [1], over 1 µM in experiment [2] and 0.1 to 0.5 µM in experiment [3].
On to `Cc1ncsc1-c1cnc(CNC(=O)[C@@H]2C[C@@H](O)CN2C(=O)[C@@H](NC(=O)[C@H]2CC3(C2)C[C@H](N2CCC(c4ccc(N5C6CCC5CN(c5cc(-c7ccccc7O)nnc5N)C6)cc4)CC2)C3)C(C)(C)C)cn1` (stereo partly drawn) [I-29, (2S,4R)-1-((2S)-2-(6-(4-(4-(3-(3-amino-6-(2-hydroxyphenyl)pyridazin-4-yl)-3,8-diazabicyclo[3.2.1]octan-8-yl)phenyl)piperidin-1-yl)spiro[3.3]heptane-2-carboxamido)-3,3-dimethylbutanoyl)-4-hydroxy-N-((5-(4-methylthiazol-5-yl)pyrazin-2-yl)methyl)pyrrolidine-2-carboxamide], for which the values for the Dmax in experiment [1], in experiment [2] and in experiment [3] were 50 to 70%, under 50% and under 50%, respectively. The DC50 in experiment [1], in experiment [2] and in experiment [3] was over 1 µM each time.
